ChEMBL document CHEMBL3045931, “QSAR studies of antituberculosis drug using three-dimensional structure descriptors” (Med Chem Res, 2013)

Test system: Mycobacterium tuberculosis
Assay: Antitubercular activity against Mycobacterium tuberculosis assessed as growth inhibition […]
Format: functional, organism-based
Conditions: read-out: log(1/IC50) (converted)

| SMILES | IC50 [µM] |
| --- | --- |
| O=C(c1ccccc1)N1CCN(Cc2ccccc2)CC1 | 31.6 |
| Cc1ccc(C(=O)N2CCN(c3ccccc3)CC2)cc1 | 16.6 |
| Cc1ccc(C(=O)N2CCN(c3cccc(C(F)(F)F)c3)CC2)cc1C | 1.86 |
| O=C(c1cccc(Cl)c1)N1CCC(Cc2ccccc2)CC1 | 7.76 |
| O=C(c1ccc2[nH]ccc2c1)N1CCN(C(c2ccc(F)cc2)c2ccc(F)cc2)CC1 | 1.05 |
| O=C(c1cccc(Cl)c1)N1CCN(c2cccc(Cl)c2)CC1 | 6.76 |
| Cc1ccc(N2CCN(C(=O)c3ccc(C(C)(C)C)cc3)CC2)cc1Cl | 100 |
| CC(C)(C)c1ccc(C(=O)N2CCN(c3cccc(C(F)(F)F)c3)CC2)cc1 | 100 |
| O=C(c1ccc(Cl)c(Cl)c1)N1CCN(c2ccccc2)CC1 | 17.8 |
| O=C(c1ccccc1)N1CCN(c2ccccc2)CC1 | 38.9 |
| O=C(c1ccc(Cl)c(Cl)c1)N1CCN(c2cccc(Cl)c2)CC1 | 6.03 |
| O=C(c1ccccc1)N1CCN(C(c2ccc(F)cc2)c2ccc(F)cc2)CC1 | 2.04 |
| O=C(c1ccc(F)cc1)N1CCN(c2cccc(Cl)c2)CC1 | 9.77 |
| O=C(c1ccccc1F)N1CCC(Cc2ccccc2)CC1 | 14.1 |
| CC(C)c1ccc(C(=O)N2CCN(c3cccc(Cl)c3)CC2)cc1 | 100 |
| Cc1ccc(C(=O)N2CCC(Cc3ccccc3)CC2)cc1 | 5.13 |
| O=C(c1ccccc1F)N1CCN(c2cccc(Cl)c2)CC1 | 13.8 |
| Cc1ccc(C(=O)N2CCN(c3cccc(C(F)(F)F)c3)CC2)cc1 | 6.31 |
| Cc1cccc(C(=O)N2CCN(c3cccc(Cl)c3)CC2)c1 | 9.33 |
| Cc1ccc(C(=O)N2CCN(c3cccc(Cl)c3)CC2)cc1 | 3.09 |
| Cc1cccc(C(=O)N2CCN(c3ccc([N+](=O)[O-])cc3)CC2)c1 | 15.5 |
| Cc1ccc(C(=O)N2CCN(C(c3ccc(F)cc3)c3ccc(F)cc3)CC2)cc1 | 1.91 |
| CC(C)(C)c1ccc(C(=O)N2CCN(c3cccc(Cl)c3)CC2)cc1 | 100 |
